The source of these data is ChEMBL document CHEMBL4033613, “Rearranged Terpenoids from the Marine Sponge Darwinella cf. oxeata and Its Predator, the Nudibranch Felimida grahami” (J Nat Prod, 2017).

Assay [1] concerns Trypanosoma cruzi. The assay is described as follows: Antitrypanosomal activity against Trypanosoma cruzi trypomastigotes. In kind it is functional.
For assay [2], the system named is Trypanosoma cruzi. The assay is described as follows: Antitrypanosomal activity against Trypanosoma cruzi intracellular amastigotes. In kind it is functional, cell-based.
Assay [3] can be described thus: Cytotoxicity against mammalian NCTC cells. In kind it is functional. The note with it: Mammalia.
Where [4] appears, read: Trypanosoma cruzi, read-out: IC50.

Broadly, the IC50 is the concentration needed to halve the response being measured. For `C[C@@H](C(=O)O)c1c([C@@]2(C)CCCC(C)(C)C2)ccc2c1CN(CC(=O)O)C2=O`, the IC50 result with Trypanosoma cruzi [1] and with Trypanosoma cruzi [2] was “Not Active” in each case.
As for `C[C@@H](C(=O)O)c1c([C@@]2(C)CCCC(C)(C)C2)ccc2c1CN(C)C2=O`, the IC50 entry in the assay on Trypanosoma cruzi [1] and in the assay on Trypanosoma cruzi [2] was “Not Active” each time.
As a reminder, the CC50 is the concentration giving 50% cytotoxicity. A low value points to greater toxicity to the cells. Turning to `COC(=O)[C@H](C)c1c([C@@]2(C)CCCC(C)(C)C2)ccc2c1C(=O)OC2`, the CC50 in assay [3] worked out at 54 µM. Also, the IC50 in the assay with Trypanosoma cruzi [1] (setting [4]) was determined as 29 µM; in the assay on Trypanosoma cruzi [2] (setting [4]), 20 µM.
